Measurements published in patent US11633481B2, “Surfactants for use in healthcare products” (priority 2019, dated 2023).

Assays:
Assay type in all cases: physicochemical
[1] = Solubility in water; settings: pure water, without hydrotropes or other surfactants
[2] = Critical micelle concentration and minimum surface tension by Wilhelmy plate method
Source text: These properties may be measured and described by various methods. One method by which surfactants may be described is by the molecule's critical micelle concentration (CMC). CMC may be defined as the concentration of a surfactant at which micelles form, and above which all additional surfactant is incorporated into micelles.
As surfactant concentration increases, surface tension decreases. Once the surface is completely overlaid with surfactant molecules, micelles begin to form. This point represents the CMC, as well as the minimum surface tension. Further addition of surfactant will not further affect the surface tension. CMC may therefore be measured by observing the change in surface tension as a function of surfactant concentration. One such method for measuring this value is the Wilhemy plate method. A Wilhelmy plate is usually a thin iridium-platinum plate attached to a balance by a wire and placed perpendicularly to the air-liquid interface. The balance is used to measure the force exerted on the plate by wetting. This value is then used to calculate the surface tension (γ) according to Equation 1: γ=F/I cos θ Equation 1: wherein I is equal to the wetted perimeter (2w+2d, in which w and d are the […], respectively) and cos θ, the contact angle between the liquid and the plate, is assumed to be 0 in the absence of an extant literature value.
(§1) Nuclear magnetic resonance (NMR) spectroscopy was performed on a Bruker 500 MHz spectrometer. The critical micelle concentration (CMC) was determined by the Wilhelmy plate method at 23° C. with a tensiometer (DCAT 11, DataPhysics Instruments GmbH) equipped with a Pt—Ir plate. Dynamic surface tension was determined with a bubble pressure tensiometer (Krüss BP100, Krüss GmbH), at 23° C. Contact angle was determined with the optical contact angle goniometer (OCA 15 Pro, DataPhysics GmbH) equipped with a digital camera.

[3] = Dynamic surface tension with bubble pressure tensiometer; settings: 23° C.
Source text: Another parameter used to assess the performance of surfactants is dynamic surface tension. The dynamic surface tension is the value of the surface tension for a particular surface or interface age. In the case of liquids with added surfactants, this can differ from the equilibrium value. Immediately after a surface is produced, the surface tension is equal to that of the pure liquid. As described above, surfactants reduce surface tension; therefore, the surface tension drops until an equilibrium value is reached. The time required for equilibrium to be reached depends on the diffusion rate and the adsorption rate of the surfactant.
One method by which dynamic surface tension is measured relies upon a bubble pressure tensiometer. This device measures the maximum internal pressure of a gas bubble that is formed in a liquid by means of a capillary. The measured value corresponds to the surface tension at a certain surface age, the time from the start of the bubble formation to the occurrence of the pressure maximum. The dependence of surface tension on surface age can be measured by varying the speed at which bubbles are produced.
as §1

[4] = Contact angle (wetting) with optical contact angle goniometer; settings: 10× CMC in water
Source text: Surface-active compounds may also be assessed by their wetting ability on solid substrates as measured by the contact angle. When a liquid droplet comes in contact with a solid surface in a third medium, such as air, a three-phase line forms among the liquid, the gas and the solid. The angle between the surface tension unit vector, acting at the three-phase line and tangent at the liquid droplet, and the surface is described as the contact angle. The contact angle (also known as wetting angle) is a measure of the wettability of a solid by a liquid. In the case of complete wetting, the liquid is completely spread over the solid and the contact angle is 0°. Wetting properties are typically measured for a given compound at the concentration of 1-100×CMC, however, it is not a property that is concentration-dependent therefore measurements of wetting properties can be measured at concentrations that are higher or lower.
In one method, an optical contact angle goniometer may be used to measure the contact angle. This device uses a digital camera and software to extract the contact angle by analyze the contour shape of a sessile droplet of liquid on a surface.
as §1

[5] = chloride counterion, pH=7, 23° C.
[6] = substrate Polyethylene terephthalate

Compound | solubility in water [1] | critical micelle concentration (CMC) [2, 5] | plateau value of minimum surface tension [2, 5] | critical micelle concentration (CMC) ([2]; in water, 23° C.) | plateau value of minimum surface tension ([2]; in water, 23° C.) | time to fully saturate the interface (dynamic surface tension) ([3]; freshly created air-water interface) | contact angle (CA) ([4]; substrate Nylon) | contact angle (CA) [4, 6] | contact angle (CA) ([4]; substrate Polyethylene) | contact angle (CA) ([4]; substrate Polypropylene) | contact angle (CA) ([4]; substrate Teflon) | time to fully saturate a freshly created air-water interface (dynamic surface tension) [3] | contact angle (CA) ([4]; substrate Polyethylene-HD)
CN(C)CCCCCC(=O)NCCC[Si](O[Si](C)(C)C)(O[Si](C)(C)C)O[Si](C)(C)C [Surfactant 1, 6-(dimethylamino)-N-(3-(1,1,1,5,5,5-hexamethyl-3-((trimethylsilyl)oxy)trisiloxan-3-yl)propyl)hexanamide] | slightly soluble |  |  |  |  |  |  |  |  |  |  |  | 
CN(C)CCCCCC(=O)NCCC[Si](O[Si](C)(C)C)(O[Si](C)(C)C)O[Si](C)(C)C [Surfactant 2, 6-((3-(1,1,1,5,5,5-hexamethyl-3-((trimethylsilyl)oxy)trisiloxan-3-yl)propyl)amino)-N,N-dimethyl-6-oxohexan-1-aminium chloride] |  | about 2 mmol | about 23 mN/m |  |  |  |  |  |  |  |  |  | 
C[N+](C)(C)CCCCCC(=O)NCCC[Si](O[Si](C)(C)C)(O[Si](C)(C)C)O[Si](C)(C)C [Surfactant 3, 6-((3-(1,1,1,5,5,5-hexamethyl-3-((trimethylsilyl)oxy)trisiloxan-3-yl)propyl)amino)-N,N,N-trimethyl-6-oxohexan-1-aminium iodide] |  |  |  | about 1.6 mmol | around 20 mN/m | less than 500 ms | 0 ° | 0 ° | 0 ° | 0 ° | 10.5 ° |  | 
C[N+](C)(CCCCCC(=O)NCCC[Si](O[Si](C)(C)C)(O[Si](C)(C)C)O[Si](C)(C)C)CCCCS(=O)(=O)[O-] [Surfactant 5, 4-((6-((3-(1,1,1,5,5,5-hexamethyl-3-((trimethylsilyl)oxy)trisiloxan-3-yl)propyl)amino)-6-oxohexyl)dimethylammonio)butane-1-sulfonate] |  |  |  | about 0.39 mmol | about 21 mN/m |  | 0 ° | 0 ° | 0 ° | 0 ° | 10.2 ° | one second or less | 0 °
C[N+](C)([O-])CCCCCC(=O)NCCC[Si](O[Si](C)(C)C)(O[Si](C)(C)C)O[Si](C)(C)C [Surfactant 4, 6-((3-(1,1,1,5,5,5-hexamethyl-3-((trimethylsilyl)oxy)trisiloxan-3-yl)propyl)amino)-N,N-dimethyl-6-oxohexan-1-amine oxide] |  |  |  | about 0.49 mmol | about 20 mN/m |  | 0 ° | 0 ° | 0 ° | 0 ° | 10.6 ° | one second or less | 
